Measured values: patent publication US7262164B2, “Polymeric thiol-linked prodrugs employing benzyl elimination systems” (Enzon, Inc., priority 2001, dated 2007)
Marks after values point to notes of the source that are not given here.

Assays:
[1] = Solubility in water; assay type: physicochemical
[2] = system: murine leukemia cell line L1210/O; assay: In vivo L1210 tumor model (ascites); parameters: species or system mouse; conditions: Q2d×6, IP, intralipid
Text: 6-MP and pro-drug forms of 6-MP were screened for in vivo activity against the murine leukemia cell line L1210/O (mouse, lymphocytic leukemia). The cell line was obtained from Southern Research Institute (Birmingham, Ala.) and grown in DMEM supplemented with 10% horse serum. L 1210/O cells were subcultured two times per week and log phase cultures (viability≧95%) were used for all in vivo experiments. Female CD2F1 mice (Taconic Farms, Germantown, N.Y.) at 7-8 weeks of age were used for study. Following one week of acclimation, mice were implanted i.p. with L1210/0 cells (5×10^5 cells/mouse) at designated day 0. The mice were randomly assigned to experimental groups (8-10/group). The groups included control, 6-MP and PEG-6-MP conjugates. 6-MP was solubilized in 3% DMSO and suspended in intralipid and administered Q2d×6, IP. PEG-6-MP was dissolved in phosphate buffer (pH 5.8) and administered Q4d×3, IV. Control groups received vehicle (intralipid or phosphate buffer). The mice were monitored for up to 40 days, and the treatment was evaluated as percentage of increase in life span (ILS).

[3] = system: Lung M109 syngeneic solid tumors; assay: In vivo M109 tumor model; parameters: species or system Balb/C mice; conditions: i.v. day 1 & 4; for T/C (%) at Day 18: control median tumor volume approx. 1000 mm^3; for T/C (%) at Day 25: control median tumor volume approx. 2000 mm^3
Description: M109 cells (NCI), derived from donor mice, were grown and expanded in tissue culture for in vivo implantation. Cells were grown in EMEM with 10% FBS and 1% streptomycin/penicillin media, kept in an incubator at 37° C. with 5% CO2and split twice a week. Cells were trypsinized, harvested, washed, counted and prepared in PBS for transport to the vivarium. Cells were kept on ice until implantation was conducted with minimum lag time. A cell suspension of approximately 5×10^6 cells/mL was used. Balb/C mice were implanted subcutaneous with 100 μL of the above cell suspension (Day 0). Treatments were administered intravenously on Day 1 and Day 4. Compound doses were based on the content of 6-MP. Body weight and tumor volume were then measured twice weekly until the group's median tumor volume exceeded 2000 mm^3. The tumor volume for each mouse was determined by measuring two dimensions with calipers and calculated using the formula: tumor volume=(length×width^2)/2. Drug effects were determined by comparing tumor growth in treated versus control (no vehicle) mice. Two types of endpoints were used as the basis for comparison: (a) the percent difference in tumor volume (% T/C), measured when the control group's median tumor volume reached approximately 800-1100 mm^3 (exponential growth phase) and (b) again when the control group's median tumor volume was approximately 2000 mm^3.

[4] = system: P388/0 cell lines; assay: Cytotoxicity assay, Alamar Blue cell growth; assay type: cell-based; conditions: Mus musculus, 72 h, P388/0 cells, 3 days
Description: Cell Lines and Cytotoxicity Assays. Studies using P388/0 cell lines for IC50 (drug concentration inhibiting growth of cells by 50%) were maintained and conducted as previously reported. Briefly, for IC50 determination, cells were seeded into the microwell plates at a density of 2×10^3 cells per 50 μL per well. Plates were incubated at 37° C. in a humidified incubator with 5% CO2 for 3 days. Cell growth was measured by the addition of 10 μL/well of Alamar Blue (Alamar Biosciences, Inc., Sacramento, Calif.) and the plates were incubated a further 4 hours at 37° C. The IC50values for each compound were determined from absorbance versus dilution factor plots. All cell cultures for animal implantation were maintained at 37° C. in a humidified atmosphere of 5% CO2/[…] and subcultured once a week. All cell lines were periodically tested for Mycoplasma and were Mycoplasma free.

[5] = total dose 200 mg/kg (6-MP content)

| SMILES | solubility [1] [µg/mL] | % ILS (percent increase in life span) ([2]; total dose 90 mg/kg) [%] | % ILS (percent increase in life span) ([2]; total dose 240 mg/kg) | Anti-tumor activity, inhibiting the growth of M109 solid tumors (in words) ([3]; Balb/C mice) | T/C (%) at Day 18 [3, 5] [%] | T/C (%) at Day 25 [3, 5] [%] | T/C (%) at Day 18 ([3]; total dose 40 mg/kg) [%] | T/C (%) at Day 25 ([3]; total dose 40 mg/kg) [%] | IC50 [4] [nM] |
| --- | --- | --- | --- | --- | --- | --- | --- | --- | --- |
| Sc1ncnc2nc[nH]c12 [6-MP (1), 6-mercaptopurine] | < 100 | 31.8 | 52.5* % | ineffective | 144 | 184 |  |  |  |
| Nc1nc2nc[nH]c2c(=S)[nH]1 [6-TG (2), 6-thioguanine] |  |  |  |  |  |  | 82 | 78 | 360 |
